Assay results: publication PMC9415509, “Pro-Apoptotic Antitumoral Effect of Novel Acridine-Core Naphthoquinone Compounds against Oral Squamous Cell Carcinoma” (Molecules, 2022)
Read-outs that look alike come from different tables or passages of the source.

Assays:
[1] = Solubility observation during MTT testing; format: physicochemical
Protocol: All 26 acridine-core naphthoquinone compounds were submitted to the MTT assay to assess their cytotoxicity. […] These compounds were excluded from further biological experimentation. First, the assay was conducted on the SCC9 OSCC cell line and the results were analyzed by a nonlinear regression curve to determine the value of the half maximal inhibitory concentration (IC50). […] Anticancer activities of these compounds are reported here for the first time.

SCC9 (OSCC cell) = assay: MTT cell viability assay (cytotoxicity), SCC9; format: cell-based, human; conditions: for IC50: read-out: SCC9—Oral Cancer IC50; for SCC9 S.I.: IC50 normal oral fibroblasts / IC50 SCC9
Protocol: (§1) Cells and reagents. Human SCC-4, SCC-9, and SCC-25 cells, derived from a human oral tongue SCC (squamous cell carcinoma) were obtained from the ATCC (CRL-1624, CRL-1629, and CRL-1628, respectively) and maintained in 1:1 DMEM/F12 (Dulbecco’s modified Eagle medium and Ham’s F12 medium; Gibco (Thermo Fisher, Waltham, MA, USA)) supplemented with 10% (v/v) FBS (fetal bovine serum; Invitrogen, Thermo Fisher, Waltham, MA, USA) and 400 ng/mL hydrocortisone (Sigma-Aldrich Co., St. Louis, MO, USA). Primary normal human gingival fibroblasts were obtained from the ATCC (PCS-201-018) and maintained in DMEM supplemented with 10% (v/v) FBS and were used in a maximum of six passages. The cells were grown in a humidified environment containing 5% CO2 at 37 °C. […] Carboplatin stock was prepared in water (Fauldcarbo®; LibbsFarmacêutica, São Paulo, SP, Brazil) and was used as a standard anticancer compound.
(§2) Cell viability assay (cytotoxicity) and compound stability assay. The viability of SCC cell lines and primary human fibroblast cells was evaluated using the MTT assay as in [48]. Briefly, the cells were grown in triplicates in 96-well plates (5 × 10^3 cells/well) until confluence. Then, the medium was removed, fresh medium was added, and the cells were returned to the incubator in the presence of different compounds. DMSO at the same concentrations was used as a 100% cell viability control. After 48 h, the cells were incubated with 5 mg/mL MTT reagent (3-(4,5-dimethyl-2-thiazolyl)-2,5-diphenyl-2-H-tetrazolium bromide) (Sigma-Aldrich Co., St. Louis, MO, USA) for 3.5 h. After that, formazan crystals were dissolved in MTT solvent solution (DMSO/methanol 1:1 v/v) and the absorbance at 560 nm was evaluated using an EPOCH microplate spectrophotometer (BioTek Instruments, Winooski, VT, USA) with the background absorbance at 670 nm subtracted.
(§3) Statistical analysis, IC50 calculation. The data are presented as means ±\SD. IC50 values for the MTT assays were obtained by nonlinear regression using the […] 5.0 program (Intuitive Software for Science, San Diego, CA, USA) from at least three independent experiments. A dose–response (inhibitor) vs. response curve using the least squares method was used to determine the IC50, SD, and R^2 of the data. The selectivity index was calculated as SI = IC50 of the compound in normal oral fibroblast cells/IC50 of the same compound for each oral cancer cell line (SCC-4, SCC-9, and SCC-25) and the mean was calculated when indicated.

SCC25 OSCC cell line = assay: MTT cell viability assay (cytotoxicity), SCC25; format: cell-based, human; conditions: for IC50: read-out: Oral Tumor Cells SCC25 IC50; for SCC25 S.I.: IC50 normal oral fibroblasts / IC50 SCC25
Protocol: as §1, §2, §3

SCC4 OSCC cell line = assay: MTT cell viability assay (cytotoxicity), SCC4; format: cell-based, human; conditions: for IC50: read-out: Oral Tumor Cells SCC4 IC50; for SCC4 S.I.: IC50 normal oral fibroblasts / IC50 SCC4
Protocol: as §1, §2, §3

[2] = test system: Primary normal human gingival fibroblasts; assay: MTT cell viability assay, normal fibroblasts; format: cell-based; conditions: 48 h, read-out: Primary Gingival Fibroblast IC50
Protocol: as §1, §2, §3

[3] = Homo sapiens, SCC-9, SCC9, 48 h, MTT (Table 1)
[4] = formed crystals at low concentrations in MTT assay
[5] = Homo sapiens, SCC-25, SCC25, 48 h, MTT
[6] = Homo sapiens, SCC-4, SCC4, 48 h, MTT
[7] = Homo sapiens, Fibroblast, primary gingival fibroblasts, MTT

| Molecule | IC50 (SCC9 (OSCC cell); [3]) | melting point | solubility [1, 4] | further results |
| --- | --- | --- | --- | --- |
| 12-(3,3-dimethylphenyl)-3,4-dihydrobenzo[b]acridine-1,6,11(2H,5H,12H)-trione [4a] | – | – | – | solubility [1]: highly insoluble |
| CC1(C)CC(=O)C2=C(C1)NC1=C(C(=O)c3ccccc3C1=O)C2c1ccc(Cl)cc1 (centres unmarked) [4d, 12-(4-chlorophenyl)-3,3-dimethyl-3,4-dihydrobenzo[b]acridine-1,6,11(2H,5H,12H)-trione] | 51.6 µM | 287 to 288 °C | – | – |
| COc1ccc(C2C3=C(CC(C)(C)CC3=O)NC3=C2C(=O)c2ccccc2C3=O)cc1OC (centres unmarked) [4l, 12-(3,4-dimethoxyphenyl)-3,3-dimethyl-3,4-dihydrobenzo[b]acridine-1,6,11(2H,5H,12H)-trione] | 4.46 µM | 238 to 239 °C | – | – |
| CC1(C)CC(=O)C2=C(C1)NC1=C(C(=O)c3ccccc3C1=O)C2c1ccc(F)cc1 (centres unmarked) [4f, 12-(4-fluorophenyl)-3,3-dimethyl-3,4-dihydrobenzo[b]acridine-1,6,11(2H,5H,12H)-trione] | – | 295 to 297 °C | highly insoluble | – |
| COc1ccc(OC)c(C2C3=C(CCCC3=O)NC3=C2C(=O)c2ccccc2C3=O)c1 (centres unmarked) [5k, 12-(2,5-dimethoxyphenyl)-3,4-dihydrobenzo[b]acridine-1,6,11(2H,5H,12H)-trione] | 7.2 µM | 219 to 220 °C | – | – |
| CC(C)=CCC1=C(O)C(=O)c2ccccc2C1=O [Lapachol, lapachol] | 58.3 µM | – | – | SCC9 S.I. (SCC9 (OSCC cell)): 1.8; IC50 (SCC25 OSCC cell line; [5]): 93.8 µM; SCC25 S.I. (SCC25 OSCC cell line): 1.1; IC50 (SCC4 OSCC cell line; [6]): 76.9 µM; SCC4 S.I. (SCC4 OSCC cell line): 1.4; IC50 [2, 7]: 106 µM |
| CC1(C)CC(=O)C2=C(C1)NC1=C(C(=O)c3ccccc3C1=O)C2c1c(F)c(F)c(F)c(F)c1F (centres unmarked) [4g, 12-(perfluorophenyl)-3,3-dimethyl-3,4-dihydrobenzo[b]acridine-1,6,11(2H,5H,12H)-trione] | – | 260 to 261 °C | highly insoluble | – |
| O=C1CCCC2=C1C(c1ccccc1Cl)C1=C(N2)C(=O)c2ccccc2C1=O (centres unmarked) [5b, 12-(2-chlorophenyl)-3,4-dihydrobenzo[b]acridine-1,6,11(2H,5H,12H)-trione] | – | – | highly insoluble | – |
| COc1ccc(C2C3=C(CCCC3=O)NC3=C2C(=O)c2ccccc2C3=O)c(OC)c1 (centres unmarked) [5j, 12-(2,4-dimethoxyphenyl)-3,4-dihydrobenzo[b]acridine-1,6,11(2H,5H,12H)-trione] | 6.84 µM | – | – | – |
| O=C1CCCC2=C1C(c1ccc(Br)cc1)C1=C(N2)C(=O)c2ccccc2C1=O (centres unmarked) [5h, 12-(4-bromophenyl)-3,4-dihydrobenzo[b]acridine-1,6,11(2H,5H,12H)-trione] | 7.63 µM | 257 to 258 °C | – | – |
| O=C1CCCC2=C1C(c1ccc(F)cc1)C1=C(N2)C(=O)c2ccccc2C1=O (centres unmarked) [5f, 12-(4-fluorophenyl)-3,4-dihydrobenzo[b]acridine-1,6,11(2H,5H,12H)-trione] | – | 255 to 256 °C | highly insoluble | – |
| O=C1CCCC2=C1C(c1ccc(Cl)cc1Cl)C1=C(N2)C(=O)c2ccccc2C1=O (centres unmarked) [5e, 12-(2.4-dichlorophenyl)-3,4-dihydrobenzo[b]acridine-1,6,11(2H,5H,12H)-trione] | 4.75 µM | – | – | – |
| COc1cc(C2C3=C(CCCC3=O)NC3=C2C(=O)c2ccccc2C3=O)cc(OC)c1OC (centres unmarked) [5m, 12-(3,4,5-trimethoxyphenyl)-3,4-dihydrobenzo[b]acridine-1,6,11(2H,5H,12H)-trione] | 3.32 µM | 236 to 237 °C | – | – |
| O=C1CCCC2=C1C(c1ccccc1)C1=C(N2)C(=O)c2ccccc2C1=O (centres unmarked) [5a, 12-phenyl-3,4-dihydrobenzo[b]acridine-1,6,11(2H,5H,12H)-trione] | – | 287 to 288 °C | highly insoluble | – |
| O=C1CCCC2=C1C(c1ccc(Cl)cc1)C1=C(N2)C(=O)c2ccccc2C1=O (centres unmarked) [5d, 12-(4-chlorophenyl)-3,4-dihydrobenzo[b]acridine-1,6,11(2H,5H,12H)-trione] | 2.21 µM | 230 to 231 °C | – | – |
| CC1(C)CC(=O)C2=C(C1)NC1=C(C(=O)c3ccccc3C1=O)C2c1ccc(Br)cc1 (centres unmarked) [4h, 12-(4-bromophenyl)-3,3-dimethyl-3,4-dihydrobenzo[b]acridine-1,6,11(2H,5H,12H)-trione] | 5.86 µM | 293 to 295 °C | – | – |
| CC1(C)CC(=O)C2=C(C1)NC1=C(C(=O)c3ccccc3C1=O)C2c1cccc(Cl)c1 (centres unmarked) [4c, 12-(3-chlorophenyl)-3,3-dimethyl-3,4-dihydrobenzo[b]acridine-1,6,11(2H,5H,12H)-trione] | 14.7 µM | 249 to 251 °C | – | – |
| O=C1CCCC2=C1C(c1cccc(Cl)c1)C1=C(N2)C(=O)c2ccccc2C1=O (centres unmarked) [5c, 12-(3-chlorophenyl)-3,4-dihydrobenzo[b]acridine-1,6,11(2H,5H,12H)-trione] | 8.93 µM | 217 to 218 °C | – | – |
| Cc1ccc(C2C3=C(CCCC3=O)NC3=C2C(=O)c2ccccc2C3=O)c(C)c1 (centres unmarked) [5i, 12-(2,4-dimethylphenyl)-3,4-dihydrobenzo[b]acridine-1,6,11(2H,5H,12H)-trione] | – | 263 to 264 °C | highly insoluble | – |
| N.N.O=C([O-])C1(C(=O)[O-])CCC1.[Pt+2] [Carboplatin, carboplatin] | – | – | – | SCC9 S.I. (SCC9 (OSCC cell)): 2.2; IC50 (SCC9 (OSCC cell); SCC9, 48 h, MTT (Table 1)): 250 µM; SCC25 S.I. (SCC25 OSCC cell line): 3.0; IC50 (SCC25 OSCC cell line; SCC25, 48 h, MTT): 186 µM; SCC4 S.I. (SCC4 OSCC cell line): 3.1; IC50 (SCC4 OSCC cell line; SCC4, 48 h, MTT): 180 µM; IC50 ([2]; primary gingival fibroblasts, MTT): 560 µM |
| Cc1ccc(C2C3=C(CC(C)(C)CC3=O)NC3=C2C(=O)c2ccccc2C3=O)c(C)c1 (centres unmarked) [4i, 12-(2,4-dimethylphenyl)-3,3-dimethyl-3,4-dihydrobenzo[b]acridine-1,6,11(2H,5H,12H)-trione] | – | – | highly insoluble | – |
| CC(C)=CC[C@@H](O)C1=CC(=O)c2c(O)ccc(O)c2C1=O [Shikonin, shikonin] | – | – | – | IC50 (SCC9 (OSCC cell); Homo sapiens, SCC-9, 48 h): 1.22 µM; SCC9 S.I. (SCC9 (OSCC cell)): 2.0; IC50 (SCC25 OSCC cell line; Homo sapiens, SCC-25, 48 h): 2.47 µM; SCC25 S.I. (SCC25 OSCC cell line): 1.0; IC50 (SCC4 OSCC cell line; Homo sapiens, SCC-4, 48 h): 3.19 µM; SCC4 S.I. (SCC4 OSCC cell line): 0.8; IC50 ([2]; Homo sapiens, Fibroblast): 2.48 µM |
| CC1(C)CC(=O)C2=C(C1)NC1=C(C(=O)c3ccccc3C1=O)C2c1ccccc1Cl (centres unmarked) [4b, 12-(2-chlorophenyl)-3,3-dimethyl-3,4-dihydrobenzo[b]acridine-1,6,11(2H,5H,12H)-trione] | – | – | highly insoluble | – |
| COc1cccc2c1C(=O)c1c(O)c3c(c(O)c1C2=O)C[C@@](O)(C(=O)CO)C[C@@H]3O[C@H]1C[C@H](N)[C@H](O)[C@H](C)O1 [Doxorubicin, doxorubicin] | 7.8 µM | – | – | SCC9 S.I. (SCC9 (OSCC cell)): 1.6; IC50 (SCC25 OSCC cell line; [5]): 1.27 µM; SCC25 S.I. (SCC25 OSCC cell line): 9.7; IC50 (SCC4 OSCC cell line; [6]): 4.56 µM; SCC4 S.I. (SCC4 OSCC cell line): 2.7; IC50 [2, 7]: 12.3 µM |
| O=C1CCCC2=C1C(c1c(F)c(F)c(F)c(F)c1F)C1=C(N2)C(=O)c2ccccc2C1=O (centres unmarked) [5g, 12-(perfluorophenyl)-3,4-dihydrobenzo[b]acridine-1,6,11(2H,5H,12H)-trione] | – | – | highly insoluble | – |
| COc1ccc(C2C3=C(CCCC3=O)NC3=C2C(=O)c2ccccc2C3=O)cc1OC (centres unmarked) [5l, 12-(3,4-dimethoxyphenyl)-3,4-dihydrobenzo[b]acridine-1,6,11(2H,5H,12H)-trione] | 5.9 µM | 228 to 230 °C | – | – |
